For one assay, the target named is BRD4 (His-Brd4(44-477)) (Homo sapiens (Human), UniProt O60885). The assay can be described thus: TR-FRET in-vitro binding assay for BRD4. The note with it: single determination or n ≧ 2 independent determinations, read-out: Biochemical IC50 BRD4. A digest of the protocol:
(§1)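 TR-FRET binding with His-tagged bromodomain constructs, 8-point compound dilutions from 10 mM DMSO stocks. Reactions incubated 35 min at 30° C in 13.55 μL, read on an EnVision multilabel reader.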
For orientation: Time-resolved FRET reads energy transfer from a long-lived donor to a nearby acceptor.

In the next assay the target is BRD2 (His-Brd2(60-472)) (Homo sapiens (Human), UniProt P25440). Nature of the assay: TR-FRET in-vitro binding assay for BRD2. The note with it: single determination or n ≧ 2 independent determinations, read-out: Biochemical IC50 BRD2. In outline: as §1
Another assay addresses BRD3 (His-Brd3(20-477)) (Homo sapiens (Human), UniProt Q15059). Nature of the assay: TR-FRET in-vitro binding assay for BRD3. Conditions: single determination or n ≧ 2 independent determinations, read-out: Biochemical IC50 BRD3. In outline: as §1
The target of assay [1] is CREBBP bromodomain (His-CREBBP(1081-1197)) (Homo sapiens (Human), UniProt Q92793). Nature of the assay: AlphaScreen in-vitro binding assay for CREBBP. The note with it: single determination or n ≧ 2 independent determinations, read-out: Biochemical IC50 CREBBP. A digest of the protocol: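 Reactions at 30 °C for 35 min, then Ni-chelate acceptor and streptavidin donor beads in HEPES pH 7.5, NaCl, Tween20, BSA, 60 min at room temperature. Eight-point compound series; IC50 by non-linear regression of percent inhibition.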

In assay [2] the target is nuclear BRD4-NUT foci in HCC2494 NUT midline carcinoma cells (Homo sapiens, UniProt O60885). The assay can be described thus: cell-based.
For another assay, the system named is THP-1 cells. The assay can be described thus: Cell growth inhibition assay (CellTiter-Glo), THP-1.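 As to all read-outs here: viability read as cellular ATP luminescence after 4 days, 3-fold dilution series from 10 µM, DMSO vehicle-treated cells taken as 100%, cell-free medium wells as −100%.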 Conditions: for GI50: Homo sapiens, THP-1, read-out: THP-1 GI50; for THP-1 TGI: THP-1 cells, total growth inhibition, CellTiter-Glo. (In general: In ATP-based viability assays light output follows the ATP content of the culture.)
The subject of the next assay is K-562 cells. The assay can be described thus: Cell growth inhibition assay (CellTiter-Glo), K-562.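 As to all read-outs here: cellular ATP measured by luminescence after 4 days of exposure, 3-fold dilution series from 10 µM, DMSO vehicle-treated cells define 100%, cell-free medium wells −100%.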 The note with it: for GI50: Homo sapiens, K562, read-out: K-562 GI50; for K-562 TGI: K-562 cells, total growth inhibition, CellTiter-Glo.
In the next assay the test system is MV-4-11 cells. The assay can be described thus: Cell growth inhibition assay (CellTiter-Glo), MV-4-11.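 As to all read-outs here: cellular ATP luminescence after 4 days, 3-fold dilution series from 10 µM top dose, vehicle (0.1% DMSO) set to 100%, cell-free medium set to −100%, day 0 corrected.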 The note with it: for GI50: Homo sapiens, MV4-11, read-out: MV-4-11 GI50; for MV-4-11 TGI: MV-4-11 cells, total growth inhibition, CellTiter-Glo.

Here are results for five compounds from patent US9890166B2, “Imidazopyrrolidine derivatives and their use in the treatment of disease” (NOVARTIS AG, priority 2013, dated 2018).

Chain of CREBBP bromodomain (His-CREBBP(1081-1197)) (Q92793 1081-1197): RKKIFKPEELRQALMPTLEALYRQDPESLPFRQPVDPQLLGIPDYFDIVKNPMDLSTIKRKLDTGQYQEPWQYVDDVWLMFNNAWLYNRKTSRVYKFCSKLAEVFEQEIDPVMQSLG
Chain of BRD3 (His-Brd3(20-477)) (Q15059 20-477): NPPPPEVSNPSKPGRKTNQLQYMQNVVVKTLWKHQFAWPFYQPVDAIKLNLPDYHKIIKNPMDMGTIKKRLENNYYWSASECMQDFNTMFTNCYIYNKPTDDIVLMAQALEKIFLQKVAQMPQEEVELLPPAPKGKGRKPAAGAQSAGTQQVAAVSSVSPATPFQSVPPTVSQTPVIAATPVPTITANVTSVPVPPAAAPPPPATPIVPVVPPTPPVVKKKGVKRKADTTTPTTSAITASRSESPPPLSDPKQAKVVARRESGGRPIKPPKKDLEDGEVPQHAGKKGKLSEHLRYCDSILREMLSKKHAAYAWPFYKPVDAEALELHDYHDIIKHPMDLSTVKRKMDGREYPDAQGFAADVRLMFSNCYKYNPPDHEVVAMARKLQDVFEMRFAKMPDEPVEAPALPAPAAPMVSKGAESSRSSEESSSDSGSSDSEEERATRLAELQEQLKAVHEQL
Chain of BRD2 (His-Brd2(60-472)) (P25440 60-472): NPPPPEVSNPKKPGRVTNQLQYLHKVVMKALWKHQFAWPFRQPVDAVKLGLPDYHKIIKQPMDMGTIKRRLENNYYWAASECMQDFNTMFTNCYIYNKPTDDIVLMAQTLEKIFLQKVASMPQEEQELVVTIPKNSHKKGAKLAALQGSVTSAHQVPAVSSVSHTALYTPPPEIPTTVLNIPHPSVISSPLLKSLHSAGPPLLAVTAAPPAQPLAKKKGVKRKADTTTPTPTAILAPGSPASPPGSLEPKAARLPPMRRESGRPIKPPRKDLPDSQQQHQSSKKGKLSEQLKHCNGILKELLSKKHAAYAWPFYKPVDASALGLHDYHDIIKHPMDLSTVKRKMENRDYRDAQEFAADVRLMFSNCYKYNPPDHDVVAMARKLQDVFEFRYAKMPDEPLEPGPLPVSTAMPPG

Turning to `COc1ccc(-c2nc3c([nH]2)[C@@H](c2ccc(Cl)cc2)N(c2cc(C)c(=O)n(C)c2)C3=O)cn1` [Example 5, (R)-6-(4-chlorophenyl)-5-(1,5-dimethyl-6-oxo-1,6-dihydropyridin-3-yl)-2-(6-methoxypyridin-3-yl)-5,6-dihydropyrrolo[3,4-d]imidazol-4(1H)-one], the IC50 (commonly the concentration at which inhibition is half-maximal) came to 30 nM on BRD4 (His-Brd4(44-477)); 32 nM on BRD2 (His-Brd2(60-472)); 38 nM at BRD3 (His-Brd3(20-477)); 560 nM in assay [1]; 67 nM in assay [2]. The figures for the GI50 in the assay on THP-1 cells, in the assay on K-562 cells and in the assay on MV-4-11 cells were 60 nM, 221 nM and 37.1 nM, respectively. Also, the “THP-1 TGI” value in the assay on THP-1 cells is 106 nM. In addition, the “K-562 TGI” value in the assay with K-562 cells was over 10000 nM. In addition, in the assay on MV-4-11 cells, the “MV-4-11 TGI” value worked out at 73.9 nM.

Consider `COc1ccc(-c2nc3c(n2C)C(=O)N(c2cc(C)c(=O)n(C)c2)C3c2ccc(Cl)cc2)cn1` (stereo not shown) [Example 6, 6-(4-chlorophenyl)-5-(1,5-dimethyl-6-oxo-1,6-dihydropyridin-3-yl)-2-(6-methoxypyridin-3-yl)-3-methyl-5,6-dihydropyrrolo[3,4-d]imidazol-4(3H)-one], for which the half-maximal inhibitory concentration (IC50) at BRD4 (His-Brd4(44-477)) was determined as 92 nM; on BRD2 (His-Brd2(60-472)) it was 88 nM; on BRD3 (His-Brd3(20-477)), 88 nM; in assay [1] it was 2700 nM; in assay [2], 86.3 nM. The results for the GI50 in the assay on THP-1 cells, in the assay on K-562 cells and in the assay with MV-4-11 cells were 161 nM, 230 nM and 60.1 nM, respectively. In the assay with THP-1 cells, the “THP-1 TGI” value amounted to 324 nM. In the assay on K-562 cells, the “K-562 TGI” value was over 10000 nM. The “MV-4-11 TGI” value with MV-4-11 cells came to 102 nM.

As to `COc1ccc(-c2nc3c(n2C)C(=O)N(c2cc(C)c(=O)n(C)c2)[C@@H]3c2ccc(Cl)cc2)cn1` [Example 7, (R)-6-(4-chlorophenyl)-5-(1,5-dimethyl-6-oxo-1,6-dihydropyridin-3-yl)-2-(6-methoxypyridin-3-yl)-3-methyl-5,6-dihydropyrrolo[3,4-d]imidazol-4(3H)-one], the IC50 at BRD4 (His-Brd4(44-477)) turned out to be 56 nM; on BRD2 (His-Brd2(60-472)) it was 60 nM; on BRD3 (His-Brd3(20-477)) it was 48 nM; in assay [1] it was 1500 nM; in assay [2] it was 73.5 nM. Also, the concentration for 50% growth inhibition (GI50) (usually the concentration giving 50% growth inhibition) in the assay on THP-1 cells turned out to be 65.5 nM; with K-562 cells, 170 nM; in the assay on MV-4-11 cells it was 44.6 nM. Moreover, in the assay with THP-1 cells, the “THP-1 TGI” value worked out at 111 nM. For the same compound, in the assay with K-562 cells, the “K-562 TGI” value was over 10000 nM. The “MV-4-11 TGI” value in the assay with MV-4-11 cells was 85 nM.

Consider `COc1ccc(-c2nc3c(n2C)C(c2ccc(Cl)cc2)N(c2cc(C)c(=O)n(C)c2)C3=O)cn1` (stereo not shown) [Example 8, 6-(4-chlorophenyl)-5-(1,5-dimethyl-6-oxo-1,6-dihydropyridin-3-yl)-2-(6-methoxypyridin-3-yl)-1-methyl-5,6-dihydropyrrolo[3,4-d]imidazol-4(1H)-one], for which the IC50 worked out at 86 nM on BRD4 (His-Brd4(44-477)); 91 nM at BRD2 (His-Brd2(60-472)); 79 nM on BRD3 (His-Brd3(20-477)); 970 nM in assay [1]; 92 nM in assay [2]. Moreover, the GI50 in the assay with THP-1 cells amounted to 152 nM; in the assay with K-562 cells, 309 nM; in the assay on MV-4-11 cells, 51 nM. Further, the “THP-1 TGI” value in the assay on THP-1 cells was determined as 314 nM. The “K-562 TGI” value in the assay on K-562 cells is over 10000 nM. In the assay with MV-4-11 cells, the “MV-4-11 TGI” value worked out at 98 nM.

For the compound `COc1ccc(-c2nc3c(n2C(C)C)C(c2ccc(Cl)cc2)N(c2cc(C)c4nnc(C)n4c2)C3=O)cn1` (stereo not shown) [Example 9, 6-(4-chlorophenyl)-5-(3,8-dimethyl-[1,2,4]triazolo[4,3-a]pyridin-6-yl)-1-isopropyl-2-(6-methoxypyridin-3-yl)-5,6-dihydropyrrolo[3,4-d]imidazol-4(1H)-one], the IC50 on BRD4 (His-Brd4(44-477)) is 34 nM; at BRD2 (His-Brd2(60-472)) it was 43 nM; on BRD3 (His-Brd3(20-477)) it was 34 nM; in assay [1], over 37000 nM; in assay [2], 2090 nM. Moreover, the results for the GI50 with THP-1 cells, in the assay with K-562 cells and in the assay on MV-4-11 cells were 98.7 nM, 258 nM and 48.4 nM, respectively. Also, in the assay on THP-1 cells, the “THP-1 TGI” value stood at 175 nM. The “K-562 TGI” value with K-562 cells is over 10000 nM. Moreover, the “MV-4-11 TGI” value in the assay on MV-4-11 cells was 94.2 nM.
